# Reference: US20230141403A1 (Hoffmann-La Roche Inc., priority 2020, published 2023)
# Counter-ions that a name gives are not always drawn.
# System: Acinetobacter baumannii ATCC17978
# Assay: Antimicrobial susceptibility testing: 90% growth inhibitory concentration (IC90) determination
# Assay type: cell-based
# Details: ATCC17978, 90% growth inhibitory concentration, Iso-Sensitest broth, optical density at 600 nm over 16h, 35±2° C., read-out: AB ATCC 17978 IC90
# Experimental: (§1) Antimicrobial Susceptibility Testing:
# (§2) 90% Growth Inhibitory Concentration (IC90) Determination
# (§3) The in vitro antimicrobial activity of the compounds was determined according to the following procedure:
# (§4) The assay used a 10-points Iso-Sensitest broth medium to measure quantitatively the in vitro activity of the compounds against Acinetobacter baumannii ATCC17961 or ATCC17978.
# (§5) Stock compounds in DMSO were serially twofold diluted (e.g. range from 50 to 0.097 μM final concentration) in 384 wells microtiter plates and inoculated with 49 μl the bacterial suspension in Iso-Sensitest medium to have a final cell concentration of ˜5×10^(5) CFU/ml in a final volume/well of 50 ul/well. Microtiter plates were incubated at 35±2° C.
# (§6) Bacterial cell growth was determined with the measurement of optical density at λ=600 nm each 20 minutes over a time course of 16h. Growth inhibition was calculated during the logarithmic growth of the bacterial cells with determination of the concentration inhibiting 50% (IC50) and 90% (IC90) of the growth.
# Table 1 provides the 90% growth inhibitory concentrations (IC90) in micromoles per liter of the compounds of present invention obtained against the strain Acinetobacter baumannii ATCC17978.
row,SMILES,IC90 [µM]
1,"CC(=O)Nc1ccc(Nc2nccn3c(-c4ccc(OCC#N)cc4)cnc23)cc1C [Example 88, N-(4-((3-(4-(cyanomethoxy)phenyl)imidazo[1,2-a]pyrazin-8-yl)amino)-2-methylphenyl) acetamide]",0.33
2,"COc1ccc(-c2cnc3c(Nc4ccc(NC(C)=O)c(C)c4)nccn23)c(F)c1 [Example 89, N-(4-((3-(2-fluoro-4-methoxyphenyl)imidazo [1,2-a]pyrazin-8-yl)amino)-2-methylphenyl) acetamide]",0.28
3,"CCCCC(=O)NCCOCC(=O)Nc1ccc(Nc2nccn3c(-c4ccc(OC)cc4)cnc23)cc1C [Example 90, N-(2-(2-((4-((3-(4-methoxyphenyl)imidazo[1,2-a]pyrazin-8-yl)amino)-2-methylphenyl)amino)-2-oxoethoxy)ethyl)pentanamide]",0.24
4,"CNS(=O)(=O)c1ccc(Nc2nccn3c(-c4ccc(OC)c(Cl)c4)cnc23)cc1 [Example 91, 4-((3-(3-chloro-4-methoxyphenyl)imidazo[1,2-a]pyrazin-8-yl)amino)-N-methylbenzenesulfonamide]",0.81
5,"CCc1cc(Nc2nccn3c(-c4ccc(OC)c(F)c4F)cnc23)ccc1N [Example 92, N1-(3-(2,3-difluoro-4-methoxyphenyl)imidazo[1,2-a]pyrazin-8-yl)-3-ethylbenzene-1,4-diamine]",0.7
6,"CC1CCC(=O)N1c1ccc(Nc2nccn3c(-c4ccc(OC(F)F)cc4)cnc23)cc1 (stereo not shown) [Example 95, 1-(4-((3-(4-(difluoromethoxy)phenyl)imidazo[1,2-a]pyrazin-8-yl)amino)phenyl)-5-methylpyrrolidin-2-one]",0.38
7,"COc1ccc(-c2cnc3c(Nc4ccc(Cn5ccnc5)cc4)nccn23)cc1 [Example 117, N-[4-(imidazol-1-ylmethyl)phenyl]-3-(4-methoxyphenyl)imidazo[1,2-a]pyrazin-8-amine]",0.54
8,"COc1ccc(-c2cnc3c(Nc4ccc(Cn5ccnc5)c(C)c4)nccn23)cc1 [Example 119, N-[4-(imidazol-1-ylmethyl)-3-methyl-phenyl]-3-(4-methoxyphenyl) imidazo[1,2-a]pyrazin-8-amine]",0.37
9,COc1ccc(-c2cnc3c(Nc4ccc(CO)c(C)c4)nccn23)cc1 [Example 120],0.74
10,"Cc1cc(Nc2nccn3c(-c4ccc(OC(F)F)cc4)cnc23)ccc1CO [Example 121, (4-((3-(4-(difluoromethoxy)phenyl)imidazo[1,2-a]pyrazin-8-yl)amino)-2-methylphenyl) methanol]",0.67

# Same assay, conditions: ATCC17978, 16 h, read-out: AB ATCC 17978 IC90 (uM)
row,SMILES,IC90 [µM]
1,"CCc1cc(Nc2nccn3c(-c4ccc(OC)c(F)c4F)cnc23)ccc1NC(=O)CCN [Example 93, 3-amino-N-(4-((3-(2,3-difluoro-4-methoxyphenyl)imidazo[1,2-a]pyrazin-8-yl)amino)-2-ethylphenyl)propanamide hydrochloride]",0.18

# System: Acinetobacter baumannii ATCC17961
# Assay: as above
# Assay type: cell-based
# Details: 90% growth inhibitory concentration; Iso-Sensitest broth, optical density at 600 nm over 16h, 35±2° C.; read-out: AB ATCC 17961 IC90
# Experimental: as §1, §2, §3, §4, §5, §6
# Table 2 provides the 90% growth inhibitory concentrations (IC90) in micromoles per liter of the compounds of present invention obtained against the strain Acinetobacter baumannii ATCC17961.
row,SMILES,IC90 [µM]
1,"COc1ccc(-c2cnc3c(Nc4ccc(S(C)(=O)=NCCCNC(=O)[C@H]5C[C@H](O)CN5)c(C)c4)nccn23)c(F)c1F (mixture of isomers) [Example 32, rac-(2R,4S)—N-(3-(((4-((3-(2,3-difluoro-4-methoxyphenyl)imidazo[1,2-a]pyrazin-8-yl)amino)-2-methylphenyl)(methyl)oxo)-l6-sulfaneylidene)amino)propyl)-4-hydroxypyrrolidine-2-carboxamide dihydrochloride]",0.17
2,"CN=S(C)(=O)c1ccc(Nc2nccn3c(-c4ccc(OC)c(F)c4F)cnc23)cc1C (single isomer, unassigned; (+)) [Example 21, (+)-(4-((3-(2,3-difluoro-4-methoxyphenyl)imidazo[1,2-a]pyrazin-8-yl)amino)-2-methylphenyl)(methyl)(methylimino)-l6-sulfanone]",0.26
3,"CN=S(C)(=O)c1ccc(Nc2nccn3c(-c4ccc(OC)c(F)c4F)cnc23)cc1C (stereo not shown) [Example 22, 3-(2,3-difluoro-4-methoxy-phenyl)-N-[4-(N,S-dimethylsulfonimidoyl)-3-methyl-phenyl]imidazo[l,2-a]pyrazin-8-amine]",0.084
4,"CCS(=O)(=NC)c1ccc(Nc2nccn3c(-c4ccc(OC)c(F)c4F)cnc23)cc1Cl (stereo not shown) [Example 24, (2-chloro-4-((3-(2,3-difluoro-4-methoxyphenyl)imidazo[1,2-a]pyrazin-s-yl)amino)phenyl)(ethyl)(methylimino)-l6-sulfanone]",0.17

# Same assay, conditions: Acinetobacter baumannii, ATCC17961, 16 h, 90% growth inhibitory concentration; Iso-Sensitest broth, optical density at 600 nm over 16h, 35±2° C.; read-out: AB ATCC 17961 IC90
row,SMILES,IC90 [µM]
1,"COc1ccc(-c2cnc3c(Nc4ccc(S(C)(=O)=NCCCNC(=O)[C@@H]5C[C@@H](O)CN5)cc4)nccn23)c(F)c1F (mixture of isomers) [Example 33, rac-(2R,4S)-N-(3-(((4-((3-(2,3-difluoro-4-methoxyphenyl)imidazo[1,2-a]pyrazin-8-yl)amino)phenyl) (methyl)(oxo)-16-sulfaneylidene)amino)propyl)-4-hydroxypyrrolidine-2-carboxamide dihydrochloride]",0.49
2,"O=C1NCCN1c1ccc(Nc2nccn3c(-c4ccc(OC(F)F)cc4)cnc23)cc1 [Example 3, 1-[4-[[3-[4-(difluoromethoxy)phenyl]imidazo[1,2-a]pyrazin-8-yl]amino]phenyl]imidazolidin-2-one]",0.72
3,"COc1ccc(-c2cnc3c(Nc4ccc5c(c4)CCC5NCCN)nccn23)c(F)c1F (stereo not shown) [Example 6, N1-(2-aminoethyl)-N5-[3-(2,3-difluoro-4-methoxy-phenyl)imidazo[1,2-a]pyrazin-8-yl]indane-1,5-diamine formic acid]",0.3
4,"COc1ccc(-c2cnc3c(Nc4ccc(NC(C)=O)cc4)nccn23)cc1 [Example 15, N-[4-[[3-(4-methoxyphenyl)imidazo[1,2-a]pyrazin-8-yl]amino]phenyl]acetamide]",0.6
5,"CN=S(C)(=O)c1ccc(Nc2nccn3c(-c4ccc(OC)c(F)c4F)cnc23)cc1Cl (stereo not shown) [Example 23, N-[3-chloro-4-(N,S-dimethylsulfonimidoyl)phenyl]-3-(2,3-difluoro-4-methoxy-phenyl)imidazo[1,2-a]pyrazin-8-amine]",0.11
6,"CN=S(C)(=O)c1ccc(Nc2nccn3c(-c4ccc(OCC#N)c(F)c4F)cnc23)cc1C (stereo not shown) [Example 25, 2-(4-(8-((4-(N,S-dimethylsulfonimidoyl)-3-methylphenyl)amino)imidazo[1,2-a]pyrazin-3-yl)-2,3-difluorophenoxy) acetonitrile]",0.048
7,"CN=S(C)(=O)c1ccc(Nc2nccn3c(-c4ccc(OC)c(F)c4F)cnc23)cc1F (stereo not shown) [Example 26, (4-((3-(2,3-difluoro-4-methoxyphenyl)imidazol[1,2-a]pyrazin-4-yl)amino)-2-fluorophenyl)(methyl)(methylimino)-l6-sulfanone]",0.14
8,"COc1ccc(-c2cnc3c(Nc4ccc([S@](C)(=O)=NCCCN)c(C)c4)nccn23)c(F)c1F [Example 27, (−)-((3-aminopropyl)imino)(4-((3-(2,3-difluoro-4-methoxyphenyl)imidazo[1,2-a]pyrazin-8-yl)amino)-2-methylphenyl)(methyl)-l6-sulfanone]",0.086
9,"COc1ccc(-c2cnc3c(Nc4ccc([S@@](C)(=O)=NCCCN)c(C)c4)nccn23)c(F)c1F [Example 28, (+)-((3-aminopropyl)imino) (4-((3-(2,3-difluoro-4-methoxyphenyl)imidazo[1,2-a]pyrazin-8-yl)amino)-2-methylphenyl) (methyl)-16-sulfanone]",0.048
10,"COc1ccc(-c2cnc3c(Nc4ccc([S@](C)(=O)=NCCCNC(=O)[C@@H]5C[C@@H](O)CN5)c(C)c4)nccn23)c(F)c1F [Example 29, (2S,4R)—N-(3-(((−)-(4-((3-(2,3-difluoro-4-methoxyphenyl)imidazo[1,2-a]pyrazin-s-yl)amino)-2-methylphenyl)(methyl)(oxo)-l6-sulfaneylidene)amino)propyl)-4-hydroxypyrrolidine-2-carboxamide]",0.18
11,"COc1ccc(-c2cnc3c(Nc4ccc([S@@](C)(=O)=NCCCNC(=O)[C@@H]5C[C@@H](O)CN5)c(C)c4)nccn23)c(F)c1F [Example 30, (2S,4R)-N-(3-(((+)-(4-((3-(2,3-difluoro-4-methoxyphenyl)imidazo[1,2-a]pyrazin-8-yl)amino)-2-methylphenyl) (methyl)(oxo)-16-sulfaneylidene)amino)propyl)-4-hydroxypyrrolidine-2-carboxamide dihydrochloride]",0.13
12,"CN=S(=O)(c1ccc(Nc2nccn3c(-c4ccc(OC)c(F)c4F)cnc23)cc1C)N(C)C (stereo not drawn) [Example 31, 3-(2,3-difluoro-4-methoxy-phenyl)-N-[4-[S-(dimethylamino)-N-methyl-sulfonimidoyl]-3-methyl-phenyl]imidazo[1,2-a]pyrazin-8-amine]",0.5
13,"COc1ccc(-c2cnc3c(Nc4ccc(NC(=O)CN5CCNCC5)c(C)c4)nccn23)cc1 [Example 37, N-(4-((3-(4-methoxyphenyl)imidazo[1,2-a]pyrazin-8-yl)amino)-2-methylphenyl)-2-(piperazin-1-yl)acetamide]",0.21
